Where a name gives a salt, the structure may show the parent alone.
target: sc-urokinase (Homo sapiens, UniProt P00749); experiment: Inhibiting urokinase: chromogenic substrate Bz-βAla-Gly-Arg-pNA, Ki by Dixon; format: biochemical; details: 25° C., pH 8.0, mean of at least three determinations
Description: Inhibiting urokinase with selected compounds in which Y=amidino
Determining the inhibitory effect:
The Ki values are the mean of at least three determinations.

Compound	Ki [µM]
CC(C)(C)OC(=O)N[C@H](COCc1ccccc1)C(=O)NCC(=O)NCc1cccc(C(=N)N)c1 [Boc, D, CH2—O—Bz, H, CH2, 3]	> 1000
CC(C)(C)OC(=O)N[C@@H](CO)C(=O)NCC(=O)NCc1ccc(C(=N)N)cc1 [Boc, L, CH2—OH, H, CH2, 4]	23
N=C(N)c1cccc(CNC(=O)CNC(=O)[C@@H](COCc2ccccc2)NS(=O)(=O)Cc2ccccc2)c1 [Bz—SO2, D, CH2—O—Bz, H, CH2, 3]	> 1000
N=C(N)c1cccc(CNC(=O)CNC(=O)[C@H](N)COCc2ccccc2)c1 [H, D, CH2—O—Bz, H, CH2, 3]	> 1000

Now those with a lower Ki, led by results:

Ki [µM]	Compound
0.84	N=C(N)c1ccc(CNC(=O)CNC(=O)[C@@H](COCc2ccccc2)NS(=O)(=O)Cc2ccccc2)cc1 [Bz—SO2, D, CH2—O—Bz, H, CH2, 4, Benzylsulfonyl-D-Ser(Bz)-Gly-4-amidinobenzyl-amide×TFA]
0.5	CC(C)COC(=O)OC[C@@H](NS(=O)(=O)Cc1ccccc1)C(=O)NCC(=O)NCc1ccc(C(=N)N)cc1 [Bz—SO2, D, CH2—O—COO-iBu, H, CH2, 4, Benzylsulfonyl-D-Ser(COO-isobutyl)-Gly-4-amidino-benzylamide×HCl]
0.39	COC(=O)OC[C@@H](NS(=O)(=O)Cc1ccccc1)C(=O)NCC(=O)NCc1ccc(C(=N)N)cc1 [Bz—SO2, D, CH2—O—COO—CH3, H, CH2, 4]
0.048	N=C(N)c1ccc(CNC(=O)CNC(=O)[C@@H](CO)NS(=O)(=O)CC2CCCCC2)cc1 [CMe—SO2, D, CH2—OH, H, CH2, 4]
12	N=C(N)c1ccc(CNC(=O)CNC(=O)[C@H](N)CO)cc1 [H, D, CH2—OH, H, CH2, 4]
21	N=C(N)c1ccc(CNC(=O)CNC(=O)[C@@H](N)CO)cc1 [H, L, CH2—OH, H, CH2, 4]

From patent publication US6831196B2, “Urokinase inhibitors” (Curacyte AG, priority 2000, dated 2004)
